Data on 2 compounds can be found in paper PMC5547389, “Structure-activity relationships and molecular docking studies of chromene and chromene based azo chromophores: A novel series of potent antimicrobial and anticancer agents” (EXCLI Journal, 2017).

What all share (format): cell-based
Test [1] relates to Candida albicans (RCMB 05036). As to the kind of experiment: Well diffusion assay (inhibition zone). The note with it: RCMB05036, 5 mg/mL in DMSO, fungi, read-out: Inhibition Zone (IZ) diameter, C.A. Put shortly:
(§1)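 Agar well diffusion with 10 mm wells, nutrient agar for bacteria and malt extract agar for fungi. Plates were incubated 24-48 h at 37 °C for bacteria or 28 °C for fungi. Inhibition zone diameters were measured in mm, in triplicate.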

For test [2], the system named is Candida albicans (RCMB 05036). As to the kind of experiment: MIC by serial dilution method. As to conditions: RCMB05036, fungi, read-out: Minimum inhibitory concentration, MIC, C.A. Put shortly:
(§2)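 MIC values come from a serial dilution method that followed initial activity screening by agar diffusion in wells. Reference drugs were ampicillin, ciprofloxacin, gentamicin and amphotericin B.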

Test [3] relates to Pseudomonas aeruginosa (RCMB 010043). As to the kind of experiment: Well diffusion assay (inhibition zone). The note with it: RCMB010043, 5 mg/mL in DMSO, Gm-ve, read-out: Inhibition Zone (IZ) diameter, P.A. Put shortly:
as §1
In general terms: A growth-free zone around the sample is the usual read-out of agar diffusion tests.

For test [4] the test system is unchanged. As to the kind of experiment: MIC by serial dilution method. The note with it: RCMB010043, Gm-ve, read-out: Minimum inhibitory concentration, MIC, P.A. Put shortly: as §2

Converted amounts (≈) assume the structure as drawn.

Consider `N#CC1=C(N)Oc2c(N)cc3ccccc3c2C1c1ccc(F)cc1` (stereo not shown) [4a, 3,5-diamino-1-(4-fluorophenyl)-1H-benzo[f]chromene-2-carbonitrile], for which the zone of inhibition at 5000 µg/mL in test [1] came to 9.4 mm. In addition, the MIC in test [2] came out at 125 µg/mL (≈ 377 µM).
For `N#CC1=C(N)Oc2c(N)cc3ccccc3c2C1c1ccc(Cl)cc1` (stereo not shown) [4b, 3,5-diamino-1-(4-chlorophenyl)-1H-benzo[f]chromene-2-carbonitrile], the zone of inhibition at 5000 µg/mL in test [3] is 13.1 mm. Also, in test [4], the MIC is 125 µg/mL (≈ 359 µM).
